In ChEMBL document CHEMBL1131428, “Immunophilins: beyond immunosuppression” (J Med Chem, 1998):

Tests used:
[1] = biological target: Peptidyl-prolyl cis-trans isomerase FKBP1A (Homo sapiens, UniProt P62942); assay: Compound was tested for its ability to inhibit FK506 binding protein 12 rotamase activity
Mus musculus [2] = assay: Compound was evaluated for the recovery of Striatal TH immunostaining in MPTP-treated mice by concurrent treatment after 4 mg/kg sc administration.; assay type: functional, organism-based; parameters: dose 4 mg/kg; conditions: at 4 mg/kg
Gallus gallus = organism: Gallus gallus; assay: In Vitro neurotrophic effect was measured in cultured chick DRG sensory neurons.; assay type: functional; conditions: read-out: ED50 (the source's name)
Mus musculus [3] = assay: Compound was evaluated for the recovery of Striatal TH immunostaining in MPTP-treated mice by concurrent treatment after 40 mg/kg sc administration.; assay type: functional, organism-based; parameters: dose 40 mg/kg; conditions: at 40 mg/kg
Rattus norvegicus [4] = organism: Rattus norvegicus; assay: Compound was evaluated for the regrowth of Striatal dopamine neurons in 6HODA-lesioned rats at 60 days; assay type: functional, organism-based
Rattus norvegicus [5] = organism: Rattus norvegicus; assay: Compound was evaluated for the regrowth of Striatal dopamine neurons in 6HODA-lesioned rats at 7 days; assay type: functional, organism-based
Rattus norvegicus [6] = organism: Rattus norvegicus; assay: Compound was evaluated for the regrowth of Striatal dopamine neurons in 6HODA-lesioned rats at 1h.; assay type: functional, organism-based
Rattus norvegicus [7] = organism: Rattus norvegicus; assay: Compound was evaluated for the regrowth of Striatal dopamine neurons in 6HODA-lesioned rats at 28 days; assay type: functional, organism-based
Rattus norvegicus [8] = organism: Rattus norvegicus; assay: Compound was evaluated for the regrowth of Striatal dopamine neurons in 6HODA-lesioned rats at 120 days; assay type: functional, organism-based
Rattus norvegicus [9] = assay: Mean axonal area to promote nerve regeneration in rats with lesioned sciatic nerves was measured after 10 mg/kg sc daily administration.; assay type: functional; conditions: route subcutaneous
Rattus norvegicus [10] = assay: Axonal regeneration rate to promote nerve regeneration in rats with lesioned sciatic nerves was measured after 1 mg/kg sc daily administration.; assay type: functional; conditions: route subcutaneous
Rattus norvegicus [11] = assay: Axonal regeneration rate to promote nerve regeneration in rats with lesioned sciatic nerves was measured after 5 mg/kg sc daily administration.; assay type: functional; conditions: route subcutaneous
Rattus norvegicus [12] = assay: Axonal regeneration rate to promote nerve regeneration in rats with lesioned sciatic nerves was measured after 10 mg/kg sc daily administration.; assay type: functional; conditions: route subcutaneous
Rattus norvegicus [13] = assay: Mean axonal area to promote nerve regeneration in rats with lesioned sciatic nerves was measured after 5 mg/kg sc daily administration.; assay type: functional; conditions: route subcutaneous
Rattus norvegicus [14] = assay: Mean axonal area to promote nerve regeneration in rats with lesioned sciatic nerves was measured after 1 mg/kg sc daily administration.; assay type: functional; conditions: route subcutaneous
Rattus norvegicus [15] = assay: Mean axonal area to promote nerve regeneration in rats with lesioned sciatic nerves was measured after 2 mg/kg sc daily administration.; assay type: functional; conditions: route subcutaneous

Peptidyl-prolyl cis-trans isomerase FKBP1A, sequence (P62942 whole entry): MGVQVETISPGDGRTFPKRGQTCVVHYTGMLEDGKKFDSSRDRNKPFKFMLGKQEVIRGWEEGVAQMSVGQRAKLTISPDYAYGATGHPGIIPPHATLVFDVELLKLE

SMILES | Ki [1] [nM] | EC50 (Gallus gallus) [nM] | also measured
CCC(C)(C)C(=O)C(=O)N1CCCC1C(=O)OCCc1cc(OC)c(OC)c(OC)c1 (stereo not given) | 120 | – | –
CCC(C)(C)C(=O)C(=O)N1CCCC1C(=O)OCCCc1ccccc1 (stereo not given) | 42 | – | –
CCC(C)CNC(=O)N1CCCCC1C(=O)OCCCc1cccnc1 (stereo not given) | 70 | 0.07 | Recovery (Mus musculus [2]): 27.5%
CCC(C)(C)C(=O)C(=O)N1CCCCC1C(=O)OC(CCc1ccccc1)CCc1ccccc1 (stereo not given) | – | – | Recovery (Mus musculus [3]): 71.6%
CC(C)(C)C(=O)C(=O)N1CCCCC1C(=O)OCCCc1ccccc1 (stereo not given) | – | – | Recovery (Mus musculus [3]): 32.4%
CCC(C)(C)C(=O)C(=O)N1CCCC1C(=O)OCCCc1cccnc1 (stereo not given) | 7.5 | 0.05 | Recovery (Rattus norvegicus [4]): 17.3%; Recovery (Mus musculus [3]): 67.5%; Recovery (Rattus norvegicus [5]): 25.5%; Recovery (Rattus norvegicus [6]): 34.2%; Recovery (Rattus norvegicus [7]): 28.1%; Recovery (Rattus norvegicus [8]): 19.5%
O=C(OCCCc1cccnc1)C1CCCN1C(=O)NC1CCCCC1 (stereo not given) | 1480 | – | Recovery (Mus musculus [2]): 59.8%
CC(C)(C)C(=O)C(=O)N1CCCCC1C(=O)OC(CCCc1ccccc1)CCCc1ccccc1 (stereo not given) | – | – | Recovery (Mus musculus [3]): 43.8%
O=C(C(=O)N1CCCCC1C(=O)OC(CCCc1ccccc1)CCCc1ccccc1)c1ccccc1 (stereo not given) | 3 | – | –
CO[C@H]1C[C@@H]2CC[C@@H](C)[C@@](O)(O2)C(=O)C(=O)N2CCCC[C@H]2C(=O)O[C@H]([C@H](C)C[C@@H]2CC[C@@H](O)[C@H](OC)C2)CC(=O)[C@H](C)/C=C(\C)[C@@H](O)[C@@H](OC)C(=O)[C@H](C)C[C@H](C)/C=C/C=C/C=C/1C [SIROLIMUS] | – | 0.5 | –
CCC(C)(C)NC(=O)N1CCCC1C(=O)OCCCc1cccnc1 (stereo not given) | 742 | 1 | –
O=C(OCCCc1cccnc1)C1CCCN1S(=O)(=O)Cc1ccccc1 (stereo not given) | 72 | – | Recovery (Mus musculus [2]): 44.3%
CC(C)(C)C(=O)C(=O)N1CCCC1C(=O)OCCCc1ccccc1 (stereo not given) | 95 | – | –
COc1cc(C(=O)C(=O)N2CCCCC2C(=O)OC(CCCc2ccccc2)CCCc2ccccn2)cc(OC)c1OC (stereo not given) | – | 0.05 | –
COc1cc(C(=O)C(=O)N2CCCCC2C(=O)OC(CCCc2ccccc2)CCc2cccnc2)cc(OC)c1OC (stereo not given) | – | 0.95 | –
COc1cc(C(=O)C(=O)N2CCCCC2C(=O)OCCCc2c[nH]c3ccccc23)cc(OC)c1OC (stereo not given) | – | 0.06 | –
C=CC[C@@H]1/C=C(\C)CC(C)C[C@H](OC)[C@H]2O[C@@](O)(C(=O)C(=O)N3CCCC[C@H]3C(=O)O[C@H](/C(C)=C/[C@@H]3CC[C@@H](O)[C@H](OC)C3)[C@H](C)[C@@H](O)CC1=O)[C@H](C)C[C@@H]2OC (single isomer, unassigned) [TACROLIMUS ANHYDROUS] | – | 0.5 | Mean axonal area (Rattus norvegicus [9]): 100; Axonal regeneration rate (Rattus norvegicus [10]): 16; Axonal regeneration rate (Rattus norvegicus [11]): 34; Axonal regeneration rate (Rattus norvegicus [12]): 29; Mean axonal area (Rattus norvegicus [13]): 120; Mean axonal area (Rattus norvegicus [14]): 67; Mean axonal area (Rattus norvegicus [15]): 83
CCC(OC(=O)C1CCCCN1C(=O)C(=O)C(C)(C)CC)C(CCc1ccccc1)c1ccc(OC)cc1 (stereo not given) | 15 | 0.17 | –
COC(=O)C1CCCCN1C(=O)C(=O)c1ccccc1 (stereo not given) | > 10000 | > 10000 | –
CC(C)(C)C(=O)C(=O)N1CCCC1C(=O)OCCCc1cccnc1 (stereo not given) | 3 | – | –

SMILES | Ki [1] [nM] | EC50 (Gallus gallus) [nM] | also measured
CCC(C)(C)C(=O)C(=O)N1CCCCC1C(=O)OCCCc1ccccc1 (stereo not given) | 250 | – | –
CC(C)(C)C(=O)C(=O)N1CCCCC1C(=O)OC1C2CC3CC(C2)CC1C3 (stereo not given) | 78 | 0.11 | –
CCC(C)(C)C(=O)C(=O)N1CCCCC1C(=O)O[C@H](CCc1ccccc1)c1ccccc1 (stereo not given in full) | – | 0.3 | –
C/C=C/C[C@@H](C)[C@@H](O)[C@H]1C(=O)N[C@@H](CC)C(=O)N(C)CC(=O)N(C)[C@@H](CC(C)C)C(=O)N[C@@H](C(C)C)C(=O)N(C)[C@@H](C)C(=O)N[C@@H](C)C(=O)N[C@H](C)C(=O)N(C)[C@@H](CC(C)C)C(=O)N(C)[C@@H](CC(C)C)C(=O)N(C)[C@@H](C(C)C)C(=O)N1C | 50 | – | –
O=C(OCCCCc1ccccc1)C1CCCCN1S(=O)(=O)Cc1ccccc1 (stereo not given) | – | 0.03 | Recovery (Mus musculus [2]): 38%
O=C(OCCCCc1ccccc1)C1CCCCN1S(=O)(=O)c1ccccc1 (stereo not given) | – | – | Recovery (Mus musculus [2]): 29.2%
O=C(OCCCc1cccnc1)C1CCCN1C(=S)NC1C2CC3CC(C2)CC1C3 (stereo not given) | 116 | 0.14 | Recovery (Mus musculus [2]): 52.3%
CCC(C)(C)C(=O)C(=O)N1CCCCC1C(=O)OCCC(c1ccccc1)c1ccccc1 (stereo not given) | 8.3 | – | –
Cc1ccc(S(=O)(=O)N2CCCCC2C(=O)OCCCCc2ccccc2)cc1 (stereo not given) | – | – | Recovery (Mus musculus [2]): 44.2%
COc1ccc(CCCCOC(=O)C2CCCCN2C(=O)C(=O)c2cc(OC)c(OC)c(OC)c2)cc1 (stereo not given) | – | 0.03 | –
O=C(C(=O)N1CCCCC1C(=O)OC(CCCc1ccccc1)CCCc1ccccn1)c1ccccc1 (stereo not given) | 50 | 0.063 | –
O=C(OC(CCCc1ccccc1)Cc1ccccc1)C1CCCCN1S(=O)(=O)Cc1ccccc1 (stereo not given) | 107 | 0.133 | –
O=C(C(=O)N1CCCCC1C(=O)OCCCc1cccnc1)c1ccccc1 (stereo not given) | 725 | 0.8 | –
COC(=O)C(=O)N1CCCCC1C(=O)OCc1ccccc1 (stereo not given) | 8000 | > 10000 | –
CC[C@@H]1/C=C(/C)[C@@H](O)[C@@H](C)C[C@H](OC)[C@H]2O[C@@](O)(C(=O)C(=O)N3CCCC[C@H]3C(=O)O[C@H](/C(C)=C/[C@@H]3CC[C@@H](O)[C@H](OC)C3)[C@H](C)[C@@H](O)CC1=O)[C@H](C)C[C@@H]2OC | 0.7 | 5 | –
Cc1ccc(S(=O)(=O)N2CCCCC2C(=O)OC(CCCc2ccccc2)CCCc2ccccc2)cc1 (stereo not given) | 332 | 1 | –
CCOC(=O)C1CCCCN1C(=O)C(C)=O (stereo not given) | > 10000 | > 10000 | –
CCOC(=O)C1CCCCN1C(=O)C(=O)OC (stereo not given) | > 10000 | – | –
O=C(OCCCc1cccnc1)C1CCCN1C(=S)NC1CCCCC1 (stereo not given) | 131 | 0.3 | Recovery (Mus musculus [2]): 56.1%
CCC(C)(C)C(=O)C(=O)N1CCCC1C(=O)OC/C=C/c1cc(OC)ccc1OC (stereo not given) | 450 | 0.8 | –

Now from value to molecule, other results behind:

Ki [1] [nM] | EC50 (Gallus gallus) [nM] | SMILES | also measured
– | 2 | O=C(C(=O)N1CCCC1C(=O)OCCCc1cccnc1)C1CCCCC1 (stereo not given) | –
195 | 0.075 | CCC(C)(C)C(=O)C(=O)N1CCCC1C(=O)OCCCc1ccccn1 (stereo not given) | –
– | > 10000 | COC(=O)C(=O)N1CCCCC1C(=O)OCCCC1CCCCC1 (stereo not given) | –
12 | 2.5 | CCC(C)(C)C(=O)C(=O)N1CCCCC1C(=O)OCCCc1cc(OC)ccc1OC (stereo not given) | –
210 | 0.82 | O=C(C(=O)N1CCCCC1C(=O)OCCCc1ccccc1)C1CCCCC1 (stereo not given) | –
– | 1 | CCC(C)(C)C(=O)C(=O)N1CCCCC1C(=O)OCCCC1CCCCC1 (stereo not given) | –
60 | – | CCC(C)(C)C(=O)C(=O)N1CCCCC1C(=O)OCCCCc1ccc(OC)cc1 (stereo not given) | –
170 | 10 | CCC(C)(C)C(=O)C(=O)N1CCCC1C(=O)OCCCc1ccc2c(c1)OCO2 (stereo not given) | –
– | > 10000 | COC(=O)C(=O)N1CCCCC1C(=O)OCCCC1CCCC1 (stereo not given) | –
103 | 6 | COc1ccc(CCCCOC(=O)C2CCCCN2C(=O)C(=O)C2CCCCC2)cc1 (stereo not given) | –
– | > 10000 | COC(=O)C(=O)N1CCCCC1C(=O)OCCCCC1CCCCC1 (stereo not given) | –
250 | 2 | CCC(C)(C)C(=O)C(=O)N1CCCC1C(=O)OCCCc1cc(OC)ccc1OC (stereo not given) | –
130 | 8.5 | CCC(C)(C)C(=O)C(=O)N1CCCCC1C(=O)OCCCc1cccnc1 (stereo not given) | –
25 | – | CCC(C)(C)C(=O)C(=O)N1CCCCC1C(=O)OCCCc1cc(OC)c(OC)c(OC)c1 (stereo not given) | –
1300 | – | CCOC(=O)C1CCCCN1C(=O)C(=O)C(C)(C)CC (stereo not given) | –
194 | 0.257 | CCC(C)(C)C(=O)C(=O)N1CCCC1C(=O)OCCCC1CCCCC1 (stereo not given) | –
760 | 1 | O=C(C(=O)N1CCCCC1C(=O)OCCCC1CCCCC1)C1CCCCC1 (stereo not given) | –
32 | 0.29 | CC(C)(C)C(=O)C(=O)N1CCCCC1C(=O)OCCCC1CCCCC1 (stereo not given) | –
24 | – | COc1ccc(CCCCOC(=O)C2CCCCN2C(=O)C(=O)C(C)(C)C)cc1 (stereo not given) | Recovery (Mus musculus [3]): 58.9%
